This experiment addresses 11β-HSD1 (Homo sapiens, UniProt P28845). Description: biochemical. As to conditions: for IC50: IC50 Range, Biological Test Example 1, microsomes from CHO cells overexpressing human 11β-HSD1; for inhibition at 0.1 µM: read-out: Average % inhibition at 100 nM, Biological Test Example 1, 100 nM.

Each structure is given as a SMILES string.

The term IC50 denotes the concentration that gives 50% inhibition. Broadly, the inhibition is how much of the control response was suppressed.

Sequence of 11β-HSD1 (P28845 whole entry): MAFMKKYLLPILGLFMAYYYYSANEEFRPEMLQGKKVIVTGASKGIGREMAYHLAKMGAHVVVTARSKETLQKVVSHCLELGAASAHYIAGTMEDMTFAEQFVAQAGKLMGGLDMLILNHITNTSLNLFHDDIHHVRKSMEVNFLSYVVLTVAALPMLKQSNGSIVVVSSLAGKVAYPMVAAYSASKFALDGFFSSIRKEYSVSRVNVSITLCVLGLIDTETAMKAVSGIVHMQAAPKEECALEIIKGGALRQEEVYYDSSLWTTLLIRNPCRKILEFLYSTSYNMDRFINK

With `C=CC[C@]1(c2ccc(F)cc2)CCN([C@@H](C)c2cccc(C(C)(C)O)c2)C(=O)O1` [EXAMPLE 364, (R)-6-allyl-6-(4-fluorophenyl)-3-((S)-1-(3-(2-hydroxypropan-2-yl)phenyl)ethyl)-1,3-oxazinan-2-one], the half-maximal inhibitory concentration (IC50) is under 100 nM and the inhibition at 0.1 µM stood at 66.3%. On the same counts, the results for `C[C@@H](c1ccc(Br)cc1)N1CC[C@](CCCO)(c2ccc(F)cc2F)OC1=O` [EXAMPLE 366, (R)-3-((S)-1-(4-bromophenyl)ethyl)-6-(2,4-difluorophenyl)-6-(3-hydroxypropyl)-1,3-oxazinan-2-one] are under 100 nM and 95.1%.

Take `Cc1ccc([C@H](C)N2CC[C@](CCCO)(c3ccc(F)cc3)OC2=O)cn1` [EXAMPLE 367, (R)-6-(4-fluorophenyl)-6-(3-hydroxypropyl)-3-((S)-1-(6-methylpyridin-3-yl)ethyl)-1,3-oxazinan-2-one]: the IC50 was under 100 nM and the inhibition at 0.1 µM stood at 44.8%. `CC[C@@H](c1ccc(Br)cc1)N1CC[C@](CCC(N)=O)(c2ccc(F)cc2)OC1=O` [EXAMPLE 368, 3-((R)-3-((S)-1-(4-bromophenyl)propyl)-6-(4-fluorophenyl)-2-oxo-1,3-oxazinan-6-yl)propanamide]: the IC50 is under 100 nM and the inhibition at 0.1 µM is 96.9%. With `C[C@@H](c1ccc(Br)cc1)N1CC[C@](CCC(C)(C)O)(c2ccc(F)cc2)OC1=O` [EXAMPLE 373, (R)-3-((S)-1-(4-bromophenyl)ethyl)-6-(4-fluorophenyl)-6-(3-hydroxy-3-methylbutyl)-1,3-oxazinan-2-one], the IC50 is under 100 nM and the inhibition at 0.1 µM turned out to be 89.1%. Consider `C[C@@H](c1ccc(Br)cc1)N1CC[C@](CCN2CCC2)(c2ccc(F)cc2)OC1=O` [EXAMPLE 374, (R)-6-(2-(azetidin-1-yl)ethyl)-3-((S)-1-(4-bromophenyl)ethyl)-6-(4-fluorophenyl)-1,3-oxazinan-2-one], for which the IC50 was under 100 nM and the inhibition at 0.1 µM worked out at 52.2%.

On to `C[C@@H](c1ccc(Br)cc1)N1CC[C@](CCNCCF)(c2ccc(F)cc2)OC1=O` [EXAMPLE 375, (R)-3-((S)-1-(4-bromophenyl)ethyl)-6-(2-(2-fluoroethylamino)ethyl)-6-(4-fluorophenyl)-1,3-oxazinan-2-one], for which the IC50 is under 100 nM and the inhibition at 0.1 µM is 70.9%.

In the case of `C[C@@H](c1ccc(Br)cc1)N1CC[C@](CCN2CCCC2)(c2ccc(F)cc2)OC1=O` [EXAMPLE 376, (R)-3-((S)-1-(4-bromophenyl)ethyl)-6-(4-fluorophenyl)-6-(2-(pyrrolidin-1-yl)ethyl)-1,3-oxazinan-2-one], the IC50 is under 100 nM and the inhibition at 0.1 µM amounted to 50.3%.

On to `C[C@@H](c1ccc(Br)cc1)N1CC[C@](CCN2CC[C@H](F)C2)(c2ccc(F)cc2)OC1=O` [EXAMPLE 377, (R)-3-((S)-1-(4-bromophenyl)ethyl)-6-(4-fluorophenyl)-6-(2-((S)-3-fluoropyrrolidin-1-yl)ethyl)-1,3-oxazinan-2-one], for which the IC50 is under 100 nM and the inhibition at 0.1 µM worked out at 72%. Turning to `C[C@@H](c1ccc(Br)cc1)N1CC[C@](CCN2CC[C@@H](F)C2)(c2ccc(F)cc2)OC1=O` [EXAMPLE 378, (R)-3-((S)-1-(4-bromophenyl)ethyl)-6-(4-fluorophenyl)-6-(2-((R)-3-fluoropyrrolidin-1-yl)ethyl)-1,3-oxazinan-2-one], the IC50 was under 100 nM and the inhibition at 0.1 µM is 70%. On to `C[C@@H](c1ccc(Br)cc1)N1CC[C@](CCN2CCNC(=O)C2)(c2ccc(F)cc2)OC1=O` [EXAMPLE 379, (R)-3-((S)-1-(4-bromophenyl)ethyl)-6-(4-fluorophenyl)-6-(2-(3-oxopiperazin-1-yl)ethyl)-1,3-oxazinan-2-one], for which the IC50 is under 100 nM and the inhibition at 0.1 µM turned out to be 57.7%. On to `C[C@@H](c1ccc(Cl)cc1)N1CC[C@](CCO)(c2ccc(F)cc2)OC1=O` [EXAMPLE 380, (S)-3-((S)-1-(4-chlorophenyl)ethyl)-6-(4-fluorophenyl)-6-(2-hydroxyethyl)-1,3-oxazinan-2-one], for which the IC50 is under 100 nM and the inhibition at 0.1 µM was found to be 97.2%.

As to `C[C@@H](c1ccc(Cl)cc1)N1CC[C@](CC(C)(C)O)(c2ccc(F)cc2)OC1=O` [EXAMPLE 381, (S)-3-((S)-1-(4-chlorophenyl)ethyl)-6-(4-fluorophenyl)-6-(2-hydroxy-2-methylpropyl)-1,3-oxazinan-2-one], the IC50 was under 100 nM and the inhibition at 0.1 µM was found to be 97.2%.

As for `C[C@@H](c1ccc(Cl)cc1)N1CC[C@](CCC(C)(C)O)(c2ccc(F)cc2)OC1=O` [EXAMPLE 382, (R)-3-((S)-1-(4-chlorophenyl)ethyl)-6-(4-fluorophenyl)-6-(3-hydroxy-3-methylbutyl)-1,3-oxazinan-2-one], the half-maximal inhibitory concentration (IC50) is under 100 nM and the inhibition at 0.1 µM turned out to be 81.3%.

For `C[C@@H](c1ccc(Cl)cc1)N1CC[C@](CCCNS(C)(=O)=O)(c2ccc(F)cc2)OC1=O` [EXAMPLE 384, N-(3-((R)-3-((S)-1-(4-chlorophenyl)ethyl)-6-(4-fluorophenyl)-2-oxo-1,3-oxazinan-6-yl)propyl)methanesulfonamide], the IC50 was under 100 nM and the inhibition at 0.1 µM stood at 89.2%.

Consider `NC(=O)c1ccc(-c2ccccc2CN2CCC(CCCO)(c3ccc(F)cc3)OC2=O)cc1` (stereo not shown) [EXAMPLE 386, 2′((6-(4-fluorophenyl)-6-(3-hydroxypropyl)-2-oxo-1,3-oxazinan-3-yl)methyl)biphenyl-4-carboxamide], for which the 50% inhibitory concentration (IC50) was under 100 nM and the inhibition at 0.1 µM was determined as 52.5%.

`C[C@@H](c1ccc(C(F)(F)F)cc1)N1CC[C@](CCO)(c2ccc(F)cc2)OC1=O` [EXAMPLE 387, (S)-6-(4-fluorophenyl)-6-(2-hydroxyethyl)-3-((S)-1-(4-(trifluoromethyl)phenyl)ethyl)-1,3-oxazinan-2-one]: the IC50 is under 100 nM and the inhibition at 0.1 µM stood at 95.8%. On the same counts, the results for `C[C@@H](c1ccc(C(F)(F)F)cc1)N1CC[C@](CCCNS(C)(=O)=O)(c2ccc(F)cc2)OC1=O` [EXAMPLE 389, N-(3-((R)-6-(4-fluorophenyl)-2-oxo-3-((S)-1-(4-(trifluoromethyl)phenyl)ethyl)-1,3-oxazinan-6-yl)propyl)methanesulfonamide] are under 100 nM and 96.4%.

As for `C[C@@H](c1ccc(C(F)(F)F)cc1)N1CC[C@](CC(C)(C)O)(c2ccc(F)cc2)OC1=O` [EXAMPLE 390, (S)-6-(4-fluorophenyl)-6-(2-hydroxy-2-methylpropyl)-3-((S)-1-(4-(trifluoromethyl)phenyl)ethyl)-1,3-oxazinan-2-one], the IC50 is under 100 nM and the inhibition at 0.1 µM was determined as 96.3%.

On to `C[C@@H](c1ccc(Br)cc1)N1CC[C@](CCCO)(c2ccccc2)OC1=O` [EXAMPLE 392, (R)-3-((S)-1-(4-bromophenyl)ethyl)-6-(3-hydroxypropyl)-6-phenyl-1,3-oxazinan-2-one], for which the IC50 is under 100 nM. `C[C@@H](c1ccc(Br)cc1)N1CC[C@](CCCNS(C)(=O)=O)(c2ccccc2)OC1=O` [EXAMPLE 394, N-(3-((R)-3-((S)-1-(4-bromophenyl)ethyl)-2-oxo-6-phenyl-1,3-oxazinan-6-yl)propyl)methanesulfonamide]: the IC50 is under 100 nM and the inhibition at 0.1 µM came to 99.1%.

For the compound `C[C@@H](c1ccc(Br)cc1)N1CC[C@](CCO)(c2ccccc2)OC1=O` [EXAMPLE 396, (S)-3-((S)-1-(4-bromophenyl)ethyl)-6-(2-hydroxyethyl)-6-phenyl-1,3-oxazinan-2-one], the IC50 is under 100 nM. Take `C[C@@H](c1ccc(Br)cc1)N1CC[C@](CCN2CCOCC2)(c2ccccc2)OC1=O` [EXAMPLE 397, (R)-3-((S)-1-(4-bromophenyl)ethyl)-6-(2-morpholinoethyl)-6-phenyl-1,3-oxazinan-2-one]: the half-maximal inhibitory concentration (IC50) is under 100 nM and the inhibition at 0.1 µM is 94.7%.

On to `CC[C@@H](c1ccc(Br)cc1)N1CC[C@](CCC(N)=O)(c2ccccc2)OC1=O` [EXAMPLE 398, 3-((R)-3-((S)-1-(4-bromophenyl)propyl)-2-oxo-6-phenyl-1,3-oxazinan-6-yl)propanamide], for which the IC50 is under 100 nM and the inhibition at 0.1 µM worked out at 97.7%. Consider `C[C@@H](c1ccc(C(F)(F)F)cc1)N1CC[C@](CCO)(c2ccccc2)OC1=O` [EXAMPLE 399, (S)-6-(2-hydroxyethyl)-6-phenyl-3-((S)-1-(4-(trifluoromethyl)phenyl)ethyl)-1,3-oxazinan-2-one], for which the IC50 was under 100 nM and the inhibition at 0.1 µM came out at 97.9%. On to `C[C@@H](c1ccc(C(F)(F)F)cc1)N1CC[C@](CC(C)(C)O)(c2ccccc2)OC1=O` [EXAMPLE 400, (S)-6-(2-hydroxy-2-methylpropyl)-6-phenyl-3-((S)-1-(4-(trifluoromethyl)phenyl)ethyl)-1,3-oxazinan-2-one], for which the IC50 was under 100 nM and the inhibition at 0.1 µM turned out to be 96.8%.

For the compound `C[C@@H](c1ccc(Cl)cc1)N1CC[C@](CCO)(c2ccccc2)OC1=O` [EXAMPLE 401, (S)-3-((S)-1-(4-chlorophenyl)ethyl)-6-(2-hydroxyethyl)-6-phenyl-1,3-oxazinan-2-one], the IC50 is under 100 nM and the inhibition at 0.1 µM turned out to be 98.6%. In the case of `C[C@@H](c1ccc(Cl)cc1)N1CC[C@](CC(C)(C)O)(c2ccccc2)OC1=O` [EXAMPLE 402, (S)-3-((S)-1-(4-chlorophenyl)ethyl)-6-(2-hydroxy-2-methylpropyl)-6-phenyl-1,3-oxazinan-2-one], the IC50 was under 100 nM and the inhibition at 0.1 µM turned out to be 96.8%.

In the case of `C[C@@H](c1ccc(Cl)cc1)N1CC[C@](CCCO)(c2ccccc2)OC1=O` [EXAMPLE 403, (R)-3-((S)-1-(4-chlorophenyl)ethyl)-6-(3-hydroxypropyl)-6-phenyl-1,3-oxazinan-2-one], the IC50 was under 100 nM and the inhibition at 0.1 µM came out at 99.5%. As to `C[C@@H](c1ccc(Cl)cc1)N1CC[C@](CCCNS(C)(=O)=O)(c2ccccc2)OC1=O` [EXAMPLE 404, N-(3-((R)-3-((S)-1-(4-chlorophenyl)ethyl)-2-oxo-6-phenyl-1,3-oxazinan-6-yl)propyl)methanesulfonamide], the concentration for half-maximal inhibition (IC50) is under 100 nM and the inhibition at 0.1 µM worked out at 91.2%.

(Values after US8575156B2, “Cyclic inhibitors of 11β-hydroxysteroid dehydrogenase 1” (Vitae Pharmaceuticals, Inc., priority 2007, dated 2013).)
